This passage reports IC50 and inhibition in vivo results from patent publication US12473289B2, “Heterocyclic compounds as delta-5 desaturase inhibitors and methods of use” (Amgen Inc., priority 2019, dated 2025).

The target of assay [1] is Delta-5-Desaturase (D5D) (Homo sapiens (Human), UniProt O60427). Description: In vitro measurement of Delta-5-Desaturase inhibitory activity using DGLA-CoA and Arachidonyl-CoA mass spectrometric assays. It counts as biochemical. Particulars: membrane preparations of D5D-overexpressing HEK293 6E cells; averaged over at least two independent runs. The method in brief: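 DGLA-CoA and arachidonyl-CoA were read by RapidFire SPE triple-quad MS (negative mode, MRM) after a 1 h ambient-temperature reaction quenched with acetonitrile. Enzyme was D5D-overexpressing HEK293 6E membranes at 10 μg/mL final; substrate solution held 0.01 mM DGLA plus NADH, ATP and CoA. Inhibition was referenced to DMSO and no-enzyme wells; 4PL IC50.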
Delta-5-Desaturase (D5D) (Homo sapiens (Human), UniProt O60427), sequence (O60427 whole entry, species assumed): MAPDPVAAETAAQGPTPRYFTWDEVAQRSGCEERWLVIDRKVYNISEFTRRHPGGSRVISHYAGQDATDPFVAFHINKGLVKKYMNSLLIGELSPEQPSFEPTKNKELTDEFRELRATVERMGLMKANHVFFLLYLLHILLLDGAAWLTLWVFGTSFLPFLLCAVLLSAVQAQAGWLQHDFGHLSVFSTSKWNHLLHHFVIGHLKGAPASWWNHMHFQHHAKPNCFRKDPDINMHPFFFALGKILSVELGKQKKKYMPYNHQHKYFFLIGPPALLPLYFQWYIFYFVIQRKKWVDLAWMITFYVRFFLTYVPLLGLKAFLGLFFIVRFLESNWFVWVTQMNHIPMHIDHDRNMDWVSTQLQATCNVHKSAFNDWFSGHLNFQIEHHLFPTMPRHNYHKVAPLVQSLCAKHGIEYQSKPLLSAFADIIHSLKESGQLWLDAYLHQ

In assay [2] the target is Delta-5-Desaturase (D5D) (Mus musculus (Mouse), UniProt Q920L1). Description: In vivo measurement of Delta-5-Desaturase inhibitory activity (plasma AA/DGLA ratio in DIO mice). Particulars: single oral dose 30 mg/kg, read-out: Average % D5D Inhibition expressed as Plasma Endogenous AA/DGLA Ratio. On the procedure: In vivo Measurement of Delta-5-Desaturase Inhibitory Activity
Delta-5-Desaturase (D5D) (Mus musculus (Mouse), UniProt Q920L1), sequence (Q920L1 whole entry): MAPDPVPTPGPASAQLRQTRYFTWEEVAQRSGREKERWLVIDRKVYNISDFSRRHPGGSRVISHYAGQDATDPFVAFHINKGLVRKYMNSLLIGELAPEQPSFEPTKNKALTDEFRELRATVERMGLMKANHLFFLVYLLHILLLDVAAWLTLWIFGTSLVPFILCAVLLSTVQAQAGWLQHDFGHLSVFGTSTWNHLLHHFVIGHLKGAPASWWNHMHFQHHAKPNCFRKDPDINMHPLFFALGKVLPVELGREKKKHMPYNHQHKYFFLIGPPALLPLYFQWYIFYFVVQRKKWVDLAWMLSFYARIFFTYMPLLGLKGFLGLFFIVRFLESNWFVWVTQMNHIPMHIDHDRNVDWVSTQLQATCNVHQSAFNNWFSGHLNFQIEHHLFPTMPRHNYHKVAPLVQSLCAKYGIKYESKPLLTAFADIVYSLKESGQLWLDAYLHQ
Diet-induced obese (DIO; Jackson Laboratories strain #3800050) mice were used to screen for pharmacodynamic (PD) activity of test compounds. Generally, 14 to 24 week old DIO mice, were administered test compounds formulated in the vehicle of 2% hydroxypropyl methylcellulose (HPMC) and 1% Tween80. Animals were dosed on body weight by oral gavage with a single dose (30 mg/kg) for PD studies. Necropsy included plasma collection for PUFA analysis. 10 μl of plasma or standards diluted in surrogate matrix (65 g/l bovine serum albumin in Dulbecco's phosphate-buffered saline) were mixed with 10 μl of an internal standard (100 μM alpha-linolenic acid-d14 (ALA-d14, Cayman Chemical)) in a 96 well plate. 100 μl of 2N NAOH was added to the mixture for subsequent saponification at 65° C. for 1 hour. The mixture was then acidified with 50 μl of formic acid followed by two consecutive hexane extractions. Hexane (500 μl) was added and the mixture thoroughly mixed by vortexing, followed by centrifugation at 4,000 rpm for 15 min. The hexane phase was transferred to a new 1 ml 96 well plate and the remaining aqueous layer was extracted with hexane. The organic extracts were combined and the solvent was removed by placing the plate under nitrogen gas at 55° C. 250 μl of 90% methanol was added to the plate followed by vortexing for 2 minutes. 200 μl of the samples were transferred to a new 96 well polypropylene plate. The samples were analyzed on a LC-MS/MS for the following PUFAs: arachidonic acid (AA), dihomo-gamma-linolenic acid (DGLA), with ALA-d14 as the internal standard. Description of the LC-MS/MS method: 5 μl of sample was injected onto a Poroshell 120 EC-C18 3.0×50 mm, 1.9 μm id column. […] The PUFA peak areas were quantified by using the SCIEX Analyst software. […] The relative decrease of the AA/DGLA ratio of the test compound administered group relative to the vehicle administered group was calculated and used as an index for the degree of D5D inhibition.
The results presented in Table 27 were obtained using certain compounds described herein in the in vivo protocol described above.

What is called IC50 is the concentration at which inhibition is half-maximal. A higher IC50 goes with weaker potency in that assay. `COc1ccn2c(=O)c(-c3ccc(OCC(C)(F)F)cc3)c(C(F)(F)F)nc2c1` [Example 9-2, 3-(4-(2,2-difluoropropoxy)phenyl)-8-methoxy-2-(trifluoromethyl)-4H-pyrido[1,2-a]pyrimidin-4-one]: the IC50 against Delta-5-Desaturase (D5D) [1] was 11.3 nM. For the same compound, the inhibition in vivo at 30 mg/kg on Delta-5-Desaturase (D5D) [2] turned out to be 67%.
As for `CCc1nc2cc(OC)ccn2c(=O)c1-c1ccc(OCC(F)(F)F)cc1` [Example 1-77, 2-ethyl-8-methoxy-3-(4-(2,2,2-trifluoroethoxy)phenyl)-4H-pyrido[1,2-a]pyrimidin-4-one], half-maximal inhibition on Delta-5-Desaturase (D5D) [1] (IC50) required 6.6 nM. Further, the inhibition in vivo at 30 mg/kg on Delta-5-Desaturase (D5D) [2] amounted to 75%.
For `COc1ccn2c(=O)c(-c3ccc(OCC(F)F)cc3F)c(C(F)(F)F)nc2c1` [Example 1-41, 3-(4-(2,2-difluoroethoxy)-2-fluorophenyl)-8-methoxy-2-(trifluoromethyl)-4H-pyrido[1,2-a]pyrimidin-4-one], in that order: 24.9 nM and 63%.
For `COc1ccn2c(=O)c(-c3ccc(OCC4CC4(F)F)cc3)c(C(F)(F)F)nc2c1` (stereo not shown) [Example 1-4, 3-(4-((2,2-difluorocyclopropyl)methoxy)phenyl)-8-methoxy-2-(trifluoromethyl)-4H-pyrido[1,2-a]pyrimidin-4-one], in that order: 6.6 nM and 60%.
`[2H]C([2H])([2H])Oc1ccn2c(=O)c(-c3ccc(OCC(F)(F)F)cc3)c(C(F)(F)F)nc2n1` [Example 1-59, 8-(methyloxy-d3)-3-(4-(2,2,2-trifluoroethoxy)phenyl)-2-(trifluoromethyl)-4H-pyrimido[1,2-a]pyrimidin-4-one]: the half-maximal inhibitory concentration (IC50) at Delta-5-Desaturase (D5D) [1] is 14.5 nM. Moreover, the inhibition in vivo at 30 mg/kg at Delta-5-Desaturase (D5D) [2] came out at 73%.
As to `COc1ccn2c(=O)c(-c3ccc(OCC4CC4)cc3)c(C(F)(F)F)nc2c1` [Example 1-8, 3-(4-(cyclopropylmethoxy)phenyl)-8-methoxy-2-(trifluoromethyl)-4H-pyrido[1,2-a]pyrimidin-4-one], the IC50 on Delta-5-Desaturase (D5D) [1] came to 5.1 nM. Also, the inhibition in vivo at 30 mg/kg at Delta-5-Desaturase (D5D) [2] is 62%.
For `CCOc1ccn2c(=O)c(-c3ccc(OCC(F)(F)F)cc3)c(C(F)(F)F)nc2c1` [Example 11-3, 8-ethoxy-3-(4-(2,2,2-trifluoroethoxy)phenyl)-2-(trifluoromethyl)-4H-pyrido[1,2-a]pyrimidin-4-one], at Delta-5-Desaturase (D5D) [1], the IC50 worked out at 27.5 nM. On Delta-5-Desaturase (D5D) [2], the inhibition in vivo at 30 mg/kg was 37%.
The matching figures for `COc1ccn2c(=O)c(-c3ccc(OCC(F)(F)F)cc3)c(OC)nc2c1` [Example 1-80, 2,8-dimethoxy-3-(4-(2,2,2-trifluoroethoxy)phenyl)-4H-pyrido[1,2-a]pyrimidin-4-one]: 12.5 nM and 57%.
For `COc1ccn2c(=O)c(-c3ccc(OC(F)(F)F)cc3)c(C(F)(F)F)nc2n1` [Example 1-72, 8-methoxy-3-(4-(trifluoromethoxy)phenyl)-2-(trifluoromethyl)-4H-pyrimido[1,2-a]pyrimidin-4-one], in that order: 57.2 nM and 54%.
The matching figures for `O=c1c(-c2cnn(CC(F)(F)C(F)(F)F)c2)c(C(F)(F)F)nc2cc(CO)ccn12` [Example 13-1, 8-(Hydroxymethyl)-3-(1-(2,2,3,3,3-pentafluoropropyl)-1H-pyrazol-4-yl)-2-(trifluoromethyl)-4H-pyrido[1,2-a]pyrimidin-4-one]: 23.9 nM and 52%.
Turning to `O=c1c(-c2cnn(CC(F)(F)C(F)(F)F)c2)c(C(F)(F)F)nc2ccc(Cl)cn12` [Example 35, 7-Chloro-3-[1-(2,2,3,3,3-pentafluoropropyl)-1H-pyrazol-4-yl]-2-(trifluoromethyl)-4H-pyrido[1,2-a]pyrimidin-4-one], on Delta-5-Desaturase (D5D) [1], the half-maximal inhibitory concentration (IC50) turned out to be 3.8 nM. Also, on Delta-5-Desaturase (D5D) [2], the inhibition in vivo at 30 mg/kg is 75%.
Compound `CCOc1nc2cc(OC)ccn2c(=O)c1-c1ccc(OCC(F)(F)F)cc1` [Example 1-81, 2-ethoxy-8-methoxy-3-(4-(2,2,2-trifluoroethoxy)phenyl)-4H-pyrido[1,2-a]pyrimidin-4-one] came in with a half-inhibitory concentration (IC50) at Delta-5-Desaturase (D5D) [1] of 12.9 nM. Also, the inhibition in vivo at 30 mg/kg on Delta-5-Desaturase (D5D) [2] was 44%.
For `COc1ccn2c(=O)c(-c3ccc(OCC(F)(F)F)cc3F)c(C(F)(F)F)nc2c1` [Example 1-20, 3-(2-fluoro-4-(2,2,2-trifluoroethoxy)phenyl)-8-methoxy-2-(trifluoromethyl)-4H-pyrido[1,2-a]pyrimidin-4-one], in that order: 8.9 nM and 78%.
At Delta-5-Desaturase (D5D) [1], `COc1cc2nc(C(F)(F)F)c(-c3cnn(CC(F)(F)C(F)(F)F)c3)c(=O)n2cc1F` [Example 33, 7-Fluoro-8-methoxy-3-[1-(2,2,3,3,3-pentafluoropropyl)-1H-pyrazol-4-yl]-2-(trifluoromethyl)-4H-pyrido[1,2-a]pyrimidin-4-one] displayed an IC50 of 20.9 nM. Further, the inhibition in vivo at 30 mg/kg on Delta-5-Desaturase (D5D) [2] was 71%.
The compound `O=c1c(-c2ccc(OCC(F)(F)F)cc2)c(C(F)(F)F)nc2cc(CF)ccn12` [Example 13-4, 8-(fluoromethyl)-3-(4-(2,2,2-trifluoroethoxy)phenyl)-2-(trifluoromethyl)-4H-pyrido[1,2-a]pyrimidin-4-one] registered a 50% inhibitory concentration (IC50) at Delta-5-Desaturase (D5D) [1] of 9.4 nM. The inhibition in vivo at 30 mg/kg on Delta-5-Desaturase (D5D) [2] is 75%.
With `Nc1ccn2c(=O)c(-c3cnn(CC(F)(F)C(F)(F)F)c3)c(C(F)(F)F)nc2c1` [Example 6-1, 8-Amino-3-(1-(2,2,3,3,3-pentafluoropropyl)-1H-pyrazol-4-yl)-2-(trifluoromethyl)-4H-pyrido[1,2-a]pyrimidin-4-one], on Delta-5-Desaturase (D5D) [1], the IC50 stood at 14.8 nM. For the same compound, the inhibition in vivo at 30 mg/kg on Delta-5-Desaturase (D5D) [2] is 51%.
The compound `CNc1ccn2c(=O)c(-c3ccc(OCC(F)(F)F)cc3)c(C(F)(F)F)nc2c1` [Example 1-29, 8-(methylamino)-3-(4-(2,2,2-trifluoroethoxy)phenyl)-2-(trifluoromethyl)-4H-pyrido[1,2-a]pyrimidin-4-one] registered an IC50 on Delta-5-Desaturase (D5D) [1] of 7 nM. The inhibition in vivo at 30 mg/kg on Delta-5-Desaturase (D5D) [2] was determined as 77%.
The matching figures for `COc1ccn2c(=O)c(-c3ccc(OCC(F)(F)F)cc3)c(C3CC3)nc2c1` [Example 1-62, 2-cyclopropyl-8-methoxy-3-(4-(2,2,2-trifluoroethoxy)phenyl)-4H-pyrido[1,2-a]pyrimidin-4-one]: 10.9 nM and 56%.
The compound `O=c1ccn2c(=O)c(-c3cnn(CC(F)(F)C(F)(F)F)c3)c(C(F)(F)F)nc2[nH]1` [Example 10-4, 7-(1-(2,2,3,3,3-pentafluoropropyl)-1H-pyrazol-4-yl)-8-(trifluoromethyl)-2H-pyrimido[1,2-a]pyrimidine-2,6(1H)-dione] showed an IC50 against Delta-5-Desaturase (D5D) [1] of 68.4 nM. The inhibition in vivo at 30 mg/kg on Delta-5-Desaturase (D5D) [2] amounted to 52%.
For `COc1ccn2c(=O)c(-c3ccc(OCC(F)(F)F)cc3)c(CF)nc2c1` [Example 1-58, 2-(fluoromethyl)-8-methoxy-3-(4-(2,2,2-trifluoroethoxy)phenyl)-4H-pyrido[1,2-a]pyrimidin-4-one], in that order: 66.1 nM and 74%.
The matching figures for `COc1ccn2c(=O)c(-c3ccc(OCC(F)(F)F)cc3)c(C(F)(F)F)nc2c1` [Example 1-44, 8-methoxy-3-(4-(2,2,2-trifluoroethoxy)phenyl)-2-(trifluoromethyl)-4H-pyrido[1,2-a]pyrimidin-4-one]: 3.4 nM and 76%.
On Delta-5-Desaturase (D5D) [1], `COc1ccn2c(=O)c(-c3ccc(OCC(F)(F)F)cc3)c(C(F)F)nc2c1` [Example 1-15, 2-(difluoromethyl)-8-methoxy-3-(4-(2,2,2-trifluoroethoxy)phenyl)-4H-pyrido[1,2-a]pyrimidin-4-one] returned an IC50 of 12.4 nM. Moreover, the inhibition in vivo at 30 mg/kg at Delta-5-Desaturase (D5D) [2] came out at 70%.
The matching figures for `[2H]C([2H])([2H])Oc1ccn2c(=O)c(-c3ccc(OCC(F)(F)F)cc3)c(C(F)(F)F)nc2c1` [Example 11-2, 8-(methyloxy-d3)-3-(4-(2,2,2-trifluoroethoxy)phenyl)-2-(trifluoromethyl)-4H-pyrido[1,2-a]pyrimidin-4-one]: 4 nM and 79%.
